According to patent US4598077A, “Amidine derivatives and cardiotonic compositions” (Torii & Co. Ltd., priority 1983, dated 1986):
Structures can show the parent of a compound that is named as a salt. Where two headings read alike, the source gives them in different places.

Experiments:
[1] = system: anesthetized open-chest dogs; assay: Cardiovascular effect in anesthetized open-chest dogs (Table 2); assay type: in vivo, Mongrel dogs; settings: femoral vein; for change in vivo at 0.1 mg/kg / change in vivo at 0.3 mg/kg / change in vivo at 0.03 mg/kg / change in vivo at 0.01 mg/kg: Canis lupus familiaris, iv
Protocol: Mongrel dogs of either sex weighing 9-15 kg were anesthetized with sodium pentobarbital (30 mg/kg, i.v.). The heart was exposed by thoractomy by the left fifth intercostal incision under artificial respiration. Aortic flow was measured by the probe of electromagnetic flowmeter placed around the ascending aorta. Myocardial contractility was measured by the maximal rate of rise of left ventricular pressure which was recorded from a needle inserted into the ventricular cavity. The systemic blood pressure was measured with a pressure transducer by means of a polyethylene cannular inserted into the femoral artery. The heart rate was recorded by a cardiotrachometer triggered by R wave of electrocargiogram (Lead II). Test compounds were dissolved in vehicle solution and were injected into the femoral vein. The effects of each compound on the cardiac contractility and aortic flow were evaluated as a percentage change in values determined before and after administration of the compound. In Table 2 are shown such changes in terms of the percentage increase after administration.

right atrium preparation = assay: Isolated, blood-perfused right atrium preparation, sinus rate (Table 1); design: species or system Mongrel dogs; settings: Canis lupus familiaris, close-arterial injection, read-out: Right atrium preparation; for activation at 0.1 mg / activation at 0.3 mg / activation at 0.03 mg: % increase in sinus rate; for activation at 0.03 mg: dose 30 μg
Protocol: Mongrel dogs of either sex weighting 7.5-10 kg were anesthetized with sodium pentobarbital (30 mg/kg, i.v.). Each animal was given an intravenous dose of sodium heparin (500 units/kg), thereafter, the heart was removed and placed in cold Tyrode solution. The isolated and cross-circulated right atrium and papillary muscle preparations were arranged for perfusion from a donor dog as follows. The donor dog was also anesthetized with sodium pentobarbital (30 mg/kg, i.v.); heparin (500 units/kg) was given intravenously immediately before the perfusion began. (b) The isolated, blood-perfused right atrium preparation. The sinus node artery was cannulated at its origin in the right coronary artery. A right atrial electrogram was obtained from bipolar electrodes which were placed in close proximity to the sinoatrial node. The sinus rate was recorded by a cardiotachometer triggered by the right atrial electrogram. The details of the bloodperfused right atrium preparation have been described by Chiba et al. (Tohoku J. exp. Med., 107, 101-102 (1972) and Kubota and Hashimoto (Naunyn-Schmiedeberg's Arch. Pharmacol., 278, 135-150 (1973)). Each preparation was perfused with the arterial blood from the carotid artery of the donor dog at a constant perfusion pressure of 100 mmHg by means of a peristaltic pump. The venous effluent from the preparations was collected in a reservoir and returned to the donor dog through the jugular vein. Test compounds used in these experiments were dissolved in vehicle solution and were injected closearterially to the preparations. The effects of each compound on the developed tension and sinuo rate were evaluated as a percentage change in values determined before and after administration of the compound. In Table 1 are shown such changes in terms of the percentage increase after administration.

Toxicity (LD50) = settings: in vivo, iv; mouse; I.V.
[2] = system: papillary muscle preparation; assay: Isolated, blood-perfused papillary muscle preparation, developed tension (Table 1); design: species or system Mongrel dogs; settings: Canis lupus familiaris, close-arterial injection, read-out: Papillary muscle preparation, % increase in developed tension; for activation at 0.1 mg: dose 100 μg; for activation at 0.3 mg: dose 300 μg; for activation at 0.03 mg: dose 30 μg
Protocol: Mongrel dogs of either sex weighting 7.5-10 kg were anesthetized with sodium pentobarbital (30 mg/kg, i.v.). Each animal was given an intravenous dose of sodium heparin (500 units/kg), thereafter, the heart was removed and placed in cold Tyrode solution. The isolated and cross-circulated right atrium and papillary muscle preparations were arranged for perfusion from a donor dog as follows. The donor dog was also anesthetized with sodium pentobarbital (30 mg/kg, i.v.); heparin (500 units/kg) was given intravenously immediately before the perfusion began. (a) The isolated, blood-perfused papillary muscle preparation. The anterior septal artery was dissected and cannulated with polyethylene tubing. The tendinous end of the papillary muscle was connected to a strain-gauge transducer by a fine silk thread and the muscles were under about 2 g of resting tension. The papillary muscle preparation was electrically driven at a constant frequency of 120/min with rectangular pulses of 1-3 V and 5 msec duration. The preparation of the blood-perfused papillary muscle has been described in detail by Endoh and Hashimoto Am. J. Physiol, 218, 1459-1463 (1970). Each preparation was perfused with the arterial blood from the carotid artery of the donor dog at a constant perfusion pressure of 100 mmHg by means of a peristaltic pump. The venous effluent from the preparations was collected in a reservoir and returned to the donor dog through the jugular vein. Test compounds used in these experiments were dissolved in vehicle solution and were injected closearterially to the preparations. The effects of each compound on the developed tension and sinuo rate were evaluated as a percentage change in values determined before and after administration of the compound. In Table 1 are shown such changes in terms of the percentage increase after administration.

[3] = 0.1 mg/kg, read-out: Increase in aortic flow (%)
[4] = 0.1 mg/kg, read-out: Increase in cardiac contractility (%)
[5] = read-out: Increase in aortic flow (%)
[6] = read-out: Increase in cardiac contractility (%)

Compound `CC(=O)O.CC(=O)O.N=C(N)c1ccc(OCc2ccc(CN)cc2)cc1` [Compound 8, 4-(4-aminomethylbenzyloxy)benzamidine diacetate] has a change in vivo at 0.1 mg/kg [1, 3] of 6.1%, a change in vivo at 0.1 mg/kg [1, 4] of 0% and a change in vivo at 0.3 mg/kg [1, 5] of 9.5%. It also gave a change in vivo at 0.3 mg/kg [1, 6] of 16.7%, an inhibition at 0.1 mg (right atrium preparation; dose 100 μg, % decrease in sinus rate (in parentheses)) of 7.7% and an activation at 0.1 mg (right atrium preparation; dose 100 μg) of 2.2%. For the same compound, the inhibition at 0.3 mg (right atrium preparation; dose 300 μg, % decrease in sinus rate (in parentheses)) was 9.7%, the activation at 0.3 mg (right atrium preparation; dose 300 μg) was 7.5% and the LD50 (Toxicity (LD50)) was 57.7 mg/kg. It also gave an activation at 0.1 mg [2] of 20.7% and an activation at 0.3 mg [2] of 44.8%.
`CN=C(NC)c1ccc(CCc2ccc(CN)cc2OC)cc1` [Compound 17, 4-[2-(4-Aminomethyl-2-methoxyphenyl)ethyl]-N,N'-dimethylbenzamidine dihydrochloride] showed a change in vivo at 0.03 mg/kg [1, 5] of 4.7%, a change in vivo at 0.03 mg/kg [1, 6] of 13.5% and a change in vivo at 0.1 mg/kg [1, 3] of 17%. The change in vivo at 0.1 mg/kg [1, 4] was 76.5%, the activation at 0.1 mg (right atrium preparation; dose 100 μg) was 14.3% and the activation at 0.3 mg (right atrium preparation; dose 300 μg) was 20.3%. It also gave an activation at 0.1 mg [2] of 76.5% and an activation at 0.3 mg [2] of 110%.
`N=C(NCCc1ccccn1)c1ccc(CCc2ccc(CN)cc2)cc1` [Compound 6, 4-[2-(4-Aminomethylphenyl)ethyl]-N-[2-(2-pyridyl)ethyl]benzamidine trihydrochloride] gave a change in vivo at 0.03 mg/kg [1, 5] of 1.8%, a change in vivo at 0.03 mg/kg [1, 6] of 5.2% and a change in vivo at 0.1 mg/kg [1, 3] of 6.5%. For the same compound, the change in vivo at 0.1 mg/kg [1, 4] was 18%, the activation at 0.1 mg (right atrium preparation; dose 100 μg) was 7.5% and the activation at 0.3 mg (right atrium preparation; dose 300 μg) was 18.3%. It also gave an activation at 0.1 mg [2] of 57.7% and an activation at 0.3 mg [2] of 93.5%.
With `CNC(=N)c1ccc(CCc2ccc(CN)cc2OC)cc1` [Compound 3, 4-[2-(4-Aminomethyl-2-methoxyphenyl)ethyl]-N-methylbenzamidine dihydrochloride] the change in vivo at 0.01 mg/kg [1, 5] was 4.1%, the change in vivo at 0.01 mg/kg [1, 6] was 14% and the change in vivo at 0.03 mg/kg [1, 5] was 21.7%. For the same compound, the change in vivo at 0.03 mg/kg [1, 6] was 24.6%, the activation at 0.03 mg (right atrium preparation) was 17.9% and the activation at 0.1 mg (right atrium preparation; dose 100 μg) was 32.5%. It also gave an activation at 0.03 mg [2] of 73.3% and an activation at 0.1 mg [2] of 115%.
For `CNC(=N)c1ccc(OCc2ccc(C=CCN)cc2)c(C(=O)c2ccccc2)c1` [Compound 12, 4-[4-(3-amino-1-propenyl)benzyloxy]-3-benzoyl-N-methylbenzamidine dihydrochloride], the change in vivo at 0.03 mg/kg [1, 5] was 6.1%, the change in vivo at 0.03 mg/kg [1, 6] was 18.8% and the change in vivo at 0.1 mg/kg [1, 3] was 8.7%. The change in vivo at 0.1 mg/kg [1, 4] was 40%, the activation at 0.03 mg (right atrium preparation) was 23.3% and the activation at 0.1 mg (right atrium preparation; dose 100 μg) was 31.6%. For the same compound, the activation at 0.03 mg [2] was 46.2% and the activation at 0.1 mg [2] was 77.8%.
In the case of `CC(=O)O.N=C(N)c1ccc(OCc2ccc(CN)cc2)c(C(=O)c2ccccc2)c1` [Compound 9, 4-(4-Aminomethylbenzyloxy)-3-benzoylbenzamidine acetate], the “% decrease in aortic flow (in parentheses)” value ([1]; 0.1 mg/kg) is reported as -7.9%, the “% decrease in cardiac contractility (in parentheses)” value ([1]; 0.1 mg/kg) is reported as -7.1% and the change in vivo at 0.1 mg/kg [1, 3] is reported as 3.9%. It also gave a change in vivo at 0.1 mg/kg [1, 4] of 12.5%, an activation at 0.1 mg (right atrium preparation; dose 100 μg) of 15.5% and an activation at 0.3 mg (right atrium preparation; dose 300 μg) of 24.3%. The activation at 0.1 mg [2] was 52.2% and the activation at 0.3 mg [2] was 71.7%.
